Assay results from patent US20240368163A1, “COMPOUNDS AND METHODS FOR MODULATING SPLICING” (REMIX THERAPEUTICS INC., priority 2021, published 2024).

Test system: MDCK-BCRP or MDCKII-MDR1 cells
Experiment: Transwell assay for membrane efflux and permeability
Format: in vitro ADME, Canine
Conditions: test compound 1 μM, 2 hours at 37° C.
Summary of the method: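 Transport measured over 2 h at 37 °C with compounds at 1 μM final in HBSS containing 0.5% DMSO. Monolayers of BCRP-expressing MDCK or MDR1-expressing MDCKII cells were cultured 4-8 days, then HBSS-washed and equilibrated 30 min at 37 °C before dosing.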

Row | Structure (SMILES) | Permeability (Papp) | Efflux Ratio
1 | Fc1cc(-c2ccc(OC3CC4CC(F)(F)C(C3)N4)nn2)c2[nH]ncc2c1-c1cn[nH]c1 (stereo not drawn) [Compound 313, 7-[6-({6,6-difluoro-8-azabicyclo[3.2.1]octan-3-yl}oxy)pyridazin-3-yl]-5-fluoro-4-(1H-pyrazol-4-yl)-1H-indazole] | C (C represents a Papp greater than 6×10^−6 cm S^−1) | 
2 | CN(c1ccc(-c2ccc(-c3cn[nH]c3)c3ncsc23)nn1)[C@H]1C[C@H]2COC[C@@H](C1)N2 [Compound 356, (endo)-N-methyl-N-{6-[4-(1H-pyrazol-4-yl)-1,3-benzothiazol-7-yl]pyridazin-3-yl}-3-oxa-9-azabicyclo[3.3.1]nonan-7-amine] | A (A represents a Papp <2×10^−6 cm s^−1) | C (C represents a ratio greater than 5)
